Experimental data from patent US8124381B2, “Process and materials for production of glucosamine and N-acetylglucosamine” (Arkion Life Sciences, priority 2002, dated 2012).

What was measured:
[1] = target: E. coli GlmS mutant GlmS*69 (Escherichia coli, UniProt P17169); test: GlmS inhibition and Michaelis-Menten kinetics; format: biochemical; details: read-out: Km (fructose-6-P)
Protocol: (§1) Different glucosamine synthetase enzymes, including native B. subtillus GlmS, native E. coli GlmS and mutant E. coli GlmS, were studied in vitro. Cells of various E. coli strains were grown in the M9A medium, harvested, and frozen. Cells extracts were prepared and the glucosamine synthetases were characterized and compared.
(§2) Enzyme sensitivities to the reaction product glucosamine-6-P were examined. […] This figure highlights the dramatic difference between the wild type GlmS and these mutant GlmS strains.
(§3) The Mutants 2123-54 and the B. subtilis enzyme have higher Ki values (Table 6). Measured Ki constants for several of these mutants are 4 to 8 times the value for the native enzyme in strain 2123-12. From shake flask studies it is apparent that decreased sensitivity to glucosamine-6-P allows higher glucosamine levels to accumulate.
(§4) These values are slightly higher than those obtained with the native enzyme.

[2] = target: E. coli GlmS mutant GlmS*110 (Escherichia coli, UniProt P17169); test: GlmS inhibition and Michaelis-Menten kinetics; format: biochemical; details: read-out: Km (fructose-6-P)
Protocol: as §1, §2, §3, §4

[3] = Stability of glucosamine in stored culture supernatant samples; format: physicochemical
Protocol: Shake flask culture samples were assayed by both the HPLC method and the colorimetric methods. The culture supernatants were obtained by centrifugation and filtration to remove particles, and stored at -20° C. until analysis. HPLC was calibrated using a single point 2500 ppm standard solution prepared in […] medium. After thawing, samples were immediately analyzed by HPLC. After remaining in the autosampler overnight, the samples were analyzed again. Agreement was very good between the two methods.

E. coli 7107-18 = test system: E. coli 7107-18
Protocol: Batches of M9A medium with 40 g l^−1 glucose and 20 g 1-1 GlcN were adjusted to five different pHs. One set of flasks was immediately inoculated with 7107-18 cells. Replicate flasks of the same media were incubated without cells for 10 hours, before inoculation. Seven times over 48 hours, flasks were sampled to measure pH, OD600, and GlcN concentration. At each sample point, the pH of the culture was readjusted back to the initial settings.
Glucosamine is vital for E. coli growth since it is a precursor for the synthesis of important cell wall components. E. coli is also capable of using Glucosamine and N-acetylglucosamine as the sole carbon source. The catabolism of the amino sugars requires a functional glucosamine deaminase encoded by the nagB gene, which was deleted in strain 7107-18. […] Experiments were carried out to investigate if glucosamine affects E. coli 7107-18 cell growth and survival in medium containing 40 g l^−1 glucose.

[4] = Glucosamine stability in cell-free M9A medium; format: physicochemical; details: for loss of glucosamine: 60 g l-1, cell-free M9A-glucose, 30 C, 52 hours; for glucosamine degradation: cell-free M9A + 40 g l-1 glucose
Protocol: Glucosamine stability was tested in cell-free M9A medium (14 g l^−1 K2HPO4, 16 g l^−1 KH2PO4, 1 g l^−1 Na3citrate.2H2O, 5 g l^−1 (NH4)2SO4, 1 mM MgSO4, 1 mM CaCl2, pH 7.0) supplemented with 40 g l^−1 glucose. Glucosamine was prepared as a 30% glucosamine-HCl concentrated solution and was added to final concentrations of 0, 4, 13, 26 and 42 g l^−1 (50 ml total in 250-ml flask). The pH of the medium was adjusted to pH 6.9. Flasks were placed on a shaker and agitated at about 225 rpm. Glucosamine levels and pH were monitored at 30° C. for about 24 hours. […] The degradation was only about 25% when the starting glucosamine concentration was 4 g l^−1. Glucosamine degradation was accompanied by a decline of pH in the medium. In the 42 g l^−1 glucosamine sample the pH in the medium was lowered by 0.7 units (from 6.9 to 6.2) after a 24-hr period, as compared to a pH change of only about 0.15 units in medium without glucosamine.
The breakdown of glucosamine (60 g l^−1) at four starting pH levels was monitored at 30° C. in cell-free M9A-glucose (40 g l^−1) for 52 hours. At each sampling time, the solutions were readjusted to their original pH. Each condition was run in triplicate. […] The loss of glucosamine was 68% at pH 7.0 as compared to 18% at pH 5.5.
To test the involvement of the aldehyde group, degradation was monitored in M9A medium containing 30 g l^−1 glucosamine with and without 40 g l^−1 glucose. If the aldehyde group is involved, the presence of glucose would affect the rate of glucosamine degradation/polymerization.

[5] = Degradation in hydrochloric acid at 90-100 C based on ammonia formation; format: physicochemical; details: 5% and 10% glucosamine hydrochloride, 12% and 20% hydrochloric acid, 90 C, 1-24 hours
Protocol: Glucosamine degradation was examined at 90° C. and 100° C. using 5% and 10% glucosamine hydrochloride (w/w) with 12% and 20% hydrochloric acid by weight. Samples were incubated from 1-24 hours and assayed enzymatically for ammonia using glutamate dehydrogenase. […] Glucosamine degradation is based on ammonia formation.
N-acetylglucosamine was hydrolyzed to glucosamine at 90° C. using the hybridization oven. The reaction was carried out inside a screw capped glass tube. The 30% hydrochloric acid (30 g) was preincubated at 90° C. for 1 hour. After this 10 g solid N-acetylglucosamine was added, quickly dissolved, and a To sample taken. Samples were taken at 30-minute intervals over the next three hours. […] Samples were analyzed for ammonia enzymatically.

[6] = Glucosamine stability under acid/heat hydrolysis conditions; format: physicochemical; details: for glucosamine stability with heating: 10 g/l in M9A, 100 C
Protocol: In the first experiment N-acetylglucosamine (10 g/l in […] medium without glucose) was hydrolyzed at 100° C. with various levels of hydrochloric acid. In a parallel experiment, glucosamine was subjected to the same treatments to determine its stability under hydrolysis conditions. Conversion of N-acetylglucosamine to glucosamine was determined by monitoring the amount of glucosamine generated by the hydrolysis reaction. Glucosamine was determined by an HPLC method based on that described by Way et al. (Journal of Liquid Chromatography and Related Technologies, 23:2861, 2000). Some specific details of the HPLC method are given below: column: […] Both the amount of remaining N-acetylglucosamine and the amount of formed glucosamine were monitored. N-acetylglucosamine was measured by HPLC using a standard carbohydrate system. Some specific details are given below: column: […] Glucosamine was measured using the ion pair HPLC column as described above. […] At 100° C. conversion was complete by 2.5 hours. […] At lower temperatures, some hydrolysis was observed, but this was much slower. […] Acid hydrolysis of N-acetylglucosamine at 90° C. was performed. […] A series of 12-ml glass screw capped tubes with Teflon lined caps were employed. Each tube represented a separate time point (0, 15, 30, 45, 60, 90 minutes) and contained 2 ml of the N-acetylglucosamine/hydrochloric acid solution. Tubes were heated in a heating block equilibrated at 90° C. Tubes were removed at appropriate times and quick cooled in ice water. Appropriate dilutions were made in and samples analyzed by HPLC for glucosamine and N-acetylglucosamine. […] Kinetics of N-acetylglucosamine disappearance were essentially the same for all four solutions. Hydrolysis is very rapid at 90° C. […] No N-acetylglucosamine was detected at 60 or 90 minutes. After 1 hour at 90° C., N-acetylglucosamine was no longer detected even with 20% N-acetylglucosamine.

E. coli strain 7107-18 = test: Effects of glucosamine and N-acetylglucosamine on growth and survival of E. coli 7107-18; format: cell-based, Escherichia coli
Protocol: As shown in Example 11, glucosamine is unstable at the regular pH range used for E. coli growth. […] The toxicity was attributed to at least partially to GlcN degradation products in media with a starting pH of 7.0. […] However, low pH levels are known to limit cell growth. Therefore, experiments were conducted in which 7107-18 was grown at pH 7.0, 6.0, 5.5, 5.0 and 4.7. The main objectives were to study cell growth at these lower pHs (with GlcN), and to see if the previously observed cell death caused by GlcN degradation could be reduced at lower pHs.
Cells were inoculated into M9A-glucose (40 g/L) containing 62 g/L N-acetyl glucosamine.

[7] = target: E. coli glucosamine synthase GlmS*54, SEQ ID NO:6 (Ala39Thr, Arg250Cys, Gly472Ser) (Escherichia coli, UniProt P17169, A39T/G472S/R250C); test: Effects of phosphorylated sugars on glucosamine synthase, crude extract of lactose-induced 7107-18 cells; format: biochemical; details: 10 mM or relatively high concentration
Protocol: Glucosamine synthetase activity was examined in the presence of various phosphorylated sugars. Crude enzyme extracts was prepared from cells of 7017-18 grown in shake flasks for 24 hours with lactose induction.

[8] = substrate: O=P(O)(O)OC[C@H]1OC(O)(CO)[C@@H](O)[C@@H]1O; test: purified protein, by the assay type

Chain of E. coli GlmS mutant GlmS*69 (P17169 whole entry, stated change not applied): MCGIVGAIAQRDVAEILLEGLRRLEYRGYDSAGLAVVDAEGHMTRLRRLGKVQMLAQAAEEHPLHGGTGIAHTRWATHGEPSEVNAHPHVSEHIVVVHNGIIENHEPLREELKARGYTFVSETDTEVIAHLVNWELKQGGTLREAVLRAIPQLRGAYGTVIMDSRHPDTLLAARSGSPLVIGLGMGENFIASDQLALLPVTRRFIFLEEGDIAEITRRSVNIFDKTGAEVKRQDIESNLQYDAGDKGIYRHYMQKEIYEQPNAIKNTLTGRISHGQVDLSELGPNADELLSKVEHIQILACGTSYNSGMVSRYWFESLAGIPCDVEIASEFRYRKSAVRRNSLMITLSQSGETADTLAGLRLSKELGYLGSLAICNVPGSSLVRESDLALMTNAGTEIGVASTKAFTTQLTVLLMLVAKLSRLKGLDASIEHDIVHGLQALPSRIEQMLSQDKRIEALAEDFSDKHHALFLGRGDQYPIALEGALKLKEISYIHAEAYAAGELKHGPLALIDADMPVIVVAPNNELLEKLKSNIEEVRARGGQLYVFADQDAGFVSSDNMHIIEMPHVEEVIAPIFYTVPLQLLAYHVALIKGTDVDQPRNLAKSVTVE
Chain of E. coli GlmS mutant GlmS*110 (P17169 whole entry, change not shown): as the sequence (P17169 whole entry, stated change not applied) above
Chain of E. coli glucosamine synthase GlmS*54, SEQ ID NO:6 (Ala39Thr, Arg250Cys, Gly472Ser) (P17169 whole entry A39T/R250C/G472S): as the sequence (P17169 whole entry, stated change not applied) above, with A39T, R250C, G472S counted along it

O=P(O)(O)OC[C@H]1OC(O)(CO)[C@@H](O)[C@@H]1O (stereo partly drawn) [fructose-6-P, fructose-6-phosphate]
Km [1]: 350 µM
Km [2]: 410 µM

N[C@H]1C(O)O[C@H](CO)[C@@H](O)[C@@H]1O (stereo partly drawn) [glucosamine]
glucosamine concentration after storage ([3]; filtered culture samples, -20 C, several weeks): no decrease in glucosamine concentration
glucosamine concentration after storage ([3]; filtered samples, room temperature, overnight): did not result in any decrease in glucosamine concentration
growth of freshly inoculated cultures (E. coli 7107-18; 10 and 20 g of glucosamine per liter, medium with 40 g l-1 glucose): slightly inhibited
toxicity on strain 7107-18 (E. coli 7107-18; 20 g l-1 glucosamine pre-incubated in the medium (pH 7.0) for 3.5 hrs prior to inoculation): Toxicity was observed
cell growth after inoculation into pre-incubated medium (E. coli 7107-18; 20 g l-1 glucosamine, medium incubated 10 hours before inoculation, pH 7.0 to 4.7): very poor
cell growth without glucosamine pre-incubation (E. coli 7107-18; 20 g l-1 glucosamine, pH 7.0): good growth
viable counts relative to inoculation levels (E. coli 7107-18; 35 g l-1 glucosamine): 10^5 fold less than inoculation levels
cell growth, inoculated immediately (E. coli 7107-18; 35 g l-1 glucosamine in M9A-glucose (40 g l-1)): grew reasonably well
cell survival in pre-incubated medium (E. coli 7107-18; 35 g l-1 glucosamine, medium pre-incubated as short as 3.5 hours): died rapidly
viable count after 52 hrs (E. coli 7107-18; 40 g glucosamine per liter): about one-fifth the original number
cell growth and survival (E. coli 7107-18; 40 g glucosamine per liter, killing after about 16 hours): prevented cell growth and began to kill the cells
cell survival without medium pre-incubation (E. coli 7107-18; 50 g l-1 glucosamine): Cells died
stability of glucosamine (in words) ([4]; 0-42 g l-1 in cell-free M9A-glucose, pH 6.9, 30 C): unstable
glucosamine breakdown with versus without 40 g l-1 glucose ([4]; 30 g l-1 glucosamine in M9A medium): No significant difference
decline of pH in the medium ([4]; 42 g l-1 glucosamine, 24-hr period (6.9 to 6.2)): 0.7 units
loss of glucosamine ([4]; pH 5.5): 18%
loss of glucosamine ([4]; pH 7.0): 68%
glucosamine degradation ([4]; starting 4 g l-1, pH 6.9, 30 C, about 24 hours): about 25%
glucosamine degradation ([4]; starting 42 g l-1, pH 6.9, 30 C, less than a day): More than half
glucosamine degradation based on ammonia formation (in words) [5]: significantly higher with higher acid concentration
glucosamine degradation ([6]; 20 g/l, 1 N hydrochloric acid, 35, 60 or 100 C, 24 hours): No degradation was observed
loss of glucosamine ([6]; 90 C, 12% and 16% hydrochloric acid, 90 minutes): No large loss of glucosamine was observed
glucosamine stability with heating ([6]; pH 1.0 or lower, hydrochloric acid): stable
glucosamine stability with heating ([6]; pH higher than 1.0): a significant amount of glucosamine was lost
viable count relative to original number (E. coli strain 7107-18; 40 g per liter, after 52 hrs): about one-fifth
concentration at which toxicity was observed (E. coli strain 7107-18; pre-incubated in medium (pH 7.0) for 3.5 hrs prior to inoculation): 20000 µg/mL

N[C@H]1[C@@H](OP(=O)(O)O)O[C@H](CO)[C@@H](O)[C@@H]1O [glucosamine-1-P, glucosamine-1-phosphate]
inhibition of glucosamine synthetase (in words) [7]: inhibited the enzyme at 10 mM

B1: Bacillus subtilis GlmS, wild type, SEQ ID NO:16 (Bacillus subtilis subsp. subtilis str. 168) (protein)
chain: CGIVGYIGQLDAKEILLKGLEKLEYRGYDSAGIAVANEQGIHVFKEKGRIADLREVVDANVEAKAGIGHTRWATHGEPSYLNAHPHQSALGRFTLVHNGVIENYVQLKQEYLQDVELKSDTDTEVVVQVIEQFVNGGLETEEAFRKTLTLLKGSYAIALFDNDNRETIFVAKNKSPLLVGLGDTFNVVASDAMAMLQVTNEYVELMDKEMVIVTDDQVVIKNLDGDVITRASYIAELDASDIEKGTYPHYMLKETDEQPVVMRKIIQTYQDENGKLSVPGDIAAAVAEADRIYIIGCGTSYHAGLVGKQYIEMWANVPVEVHVASEFSYNMPLLSKKPLFIFLSQSGETADSRAVLVQVKALGHKALTITNVPGSTLSREADYTLLLHAGPEIAVASTKAYTAQIAVLAVLASVAADKNGINIGFDLVKELGIAANAMEALCDQKDEMEMIAREYLTVSRNAFFIGRGLDYFVCVEGALKLKEISYIQAEGFAGGELKHGTIALIEQGTPVFALATQEHVNLSIRGNVKEVAARGANTCIISLKGLDDADDRFVLPEVNPALAPLVSVVPLQLIAYYAALHRGCDVDKPRNLAKSVTVE
Km [8]: 620 µM
